According to patent US20220137057A1 (priority 2019, published 2022):
Read-outs that look alike come from different tables or passages of the source.

Key:
[1] = test system: Pyricularia oryzae, Strain J1; format: cell-based; settings: for Fractional contribution of metabolite RI 3507: control 0.09 to 0.12; for Position of enzymatic inhibition in the metabolic sequence (breaking point): from increase/decrease of label incorporation, FIG. 3; for Non-polar metabolites changed (number of metabolite MIDs) / Polar metabolites changed (number of metabolite MIDs): treatment vs control; for Non-polar metabolites changed (number of metabolite MIDs): threshold 2% M0 difference, non-polar phase; for Polar metabolites changed (number of metabolite MIDs): threshold 5% M0 difference, polar phase
[2] = test system: ergosterol biosynthesis; experiment: Metabolomics (metabolite profiling) of fenpropidin treatment, FIG. 5; format: cell-based; settings: samples 0.5, 2, 6 and 48 hours after treatment
[3] = test system: Lemna paucicostata; settings: in vivo

| SMILES | Mode-of-action pinpointed by MIAMI [1] | Fractional contribution of metabolite RI 3507 ([1]; 2 hours after treatment) | Fractional contribution of metabolite RI 3507 ([1]; 6 hours after treatment) | Position of enzymatic inhibition in the metabolic sequence (breaking point) [1] | Non-polar metabolites changed (number of metabolite MIDs) [1] | Polar metabolites changed (number of metabolite MIDs) [1] | Change in ergosterol (metabolomics, fold-change to control) [2] | Change in fractional contribution of differentially labeled metabolites [3] | Mode-of-action indicated by MIAMI [3] |
| --- | --- | --- | --- | --- | --- | --- | --- | --- | --- |
| Fc1ccc([C@]2(Cn3cncn3)O[C@H]2c2ccccc2Cl)cc1 (racemic) [fung 2, Epoxiconazole] | a hand full of potential targets in steroid biosynthesis | 0.17 | 0.37 | between RI 3569 and RI 3309 | 34 | 26 | – | – | – |
| CC(Cc1ccc(C(C)(C)C)cc1)CN1CCCCC1 (stereo not drawn) [fung 1, Fenpropidin] | a hand full of potential targets in steroid biosynthesis | 0.16 | 0.18 | between metabolites RI 3507 and RI 3309 | 34 | 19 | reductions in ergosterol, however not significantly after 6 hours | – | – |
| CC(C)C1(C)N=C(c2ncccc2C(=O)O)NC1=O (stereo not drawn) [herbicide four, Imazapyr] | – | – | – | – | – | – | – | increase in fractional contribution, except for valine | mode-of-action in the valine biosynthesis pathway |
